Measurements published in patent publication US20240307409A1, “ARGININE METHYLTRANSFERASE INHIBITOR AND USE THEREOF” (Cytosinlab Therapeutics Co., Ltd., priority 2021, published 2024).

Experiments:
PRMT1 = PRMT1 (Homo sapiens, UniProt Q99873); test: PRMT1 enzyme activity test; format: biochemical; conditions: 0.5 nM PRMT1, 3H-SAM, peptide
Procedure: PRMT1 enzyme activity test were performed in a buffer prepared on the same day 5 consisting of 10 mMTirs-HCl (pH=8.0), 0.01% Tween-20 and 1 mM DTT. The compounds were prepared to the highest inhibitor concentration ultimately required in the 100× reaction with 100% DMSO and then transferred to one well of a 384-well Echo plate (Echo-eligible 384-well polypropylene microplates 2.0, transparent, flat-bottomed) and sequentially diluted in the next well with a 3-fold dilution of 100% DMSO, and so on, with a total of 10 concentrations based on Precision. 100% DMSO was added to two empty wells to serve as control well without compound and control well without enzyme in the same 384-well Echo plate. 250 nL of compound was transferred from each well of the 384-well Echo plate to a 384-well assay plate (384-well polypropylene storage microplate) via the Echo 550 liquid processor. For wells with compounds and control well without compound, a mixture (15 uL) containing PRMT1 enzyme was added to the 384-well assay plate. For control wells without enzyme, the mixture containing the assay buffer (15 uL) was added instead. The compounds were allowed to incubate with PRMT1 for 15 minutes at room temperature, and then a mixture containing ^3H-SAM and peptide (10 uL) was added to start the reaction (final volume=25 uL). The final concentrations of the components were as follows: 0.5 nM for PRMT1, 0.25 uM for ^3H-SAM, 0.1 uM for the peptide, and 1% DMSO. After 120 min of incubation, the assay was terminated by the addition of non-radiolabeled SAM (5 uL) to a final concentration of 125 uM, which diluted 3H-SAM to a level at which its incorporation into the peptide substrate was no longer detected. 25 μL of the reaction solution from the 384-well assay plate was then transferred to a 384-well detection plate (Streptavidin FlashPlate HTS PLUS, high volume, 384 wells). The biotinylated peptide was allowed to bind to the surface of the antibiotic protein streptavidin for at least 60 minutes at room temperature. The Flashplate was then washed three times with 0.1% Tween-20 in a BioTek plate washer. Plates were read on a microplate counter (MicroBeta2) to measure the amount of ^3H-labeled peptide bound to the surface of the detection plate, measured in counts per minute (cpm).
The raw data were copied from the Reader and the inhibition values were calculated in Excel by Equation (1), Equation (1): Inh %=(CPMmax−CPMcmpd)/(CPMmax−CPMmin)*100, wherein the Max signal was obtained from the enzyme-substrate interaction and the Min signal was obtained from the substrate. IC50 values were obtained by fitting the data through equation (2) using XLFit add-in for Excel version […]. Equation (2): Y=Bottom+(Top-Bottom)/(1+((IC50/X)[…])), wherein, Y represents inhibition percentage and X represents compound concentration.

Toledo cells = test: Toledo cell proliferation inhibition assay; format: cell-based; conditions: six-day assay, CellTiter-Glo
Procedure: • A. Purpose: to determine the effects of compounds on Toledo cells through a six-day cell proliferation assay. • B. Reagents and materials: • 1. Cell culture medium: RPMI 1640+10% FBS • 2. 384-well cell culture plate (Corning, item #3764) • 3. 0.4% Taipan Blue Staining Solution (Thermo Fisher, item #T10282) • 4. cell counting plate (Thermo Fisher, item #C10228) • 5. 50 ml reagent reservoir (Corning, item #4870) • 6. 50 ml conical sterile polypropylene centrifuge tube (Thermo Fisher, item #339653) • 7. Automatic cell counter (Thermo Fisher, item #AMQAX1000) • 8. CellTiter-Glo Luminescent Cell Viability Detection Reagent (Promega, item #G7572) • 9. SpectraMax i3x Multi-Mode Enzyme Labeling Instrument (Megaman Molecular Instruments, item #5024062) • C. Experimental method • 1. Resuspending the cells with a pipette. • 2. 0.4% Taipan blue staining solution and Toledo cells were mixed in equal proportion, and the cells were counted using an automatic cell counter. • 3. Toledo cells were diluted to a final concentration of 2000 cells per well and transferred to a 50 ml reagent reservoir. • 4. Diluted Toledo cells were added to a 384-well cell culture plate, 40 ul per well. • 5. The cells were shortly centrifuged and settled. • 6. The cells were incubated in a 37° C., 5% CO2 cell culture incubator. • 7. The substrate in the CellTiter-Glo Luminescent Cell Viability Detection Reagent was mixed with the solution. • 8. After six days, the 384-well cell culture plate was taken from the incubator and 20 ul of configured CellTiter-Glo reagent was added to each well. • 9. 384-well cell culture platewasmixed in an orbital shaker for 30 minutes. • 10. Signal of luminescence was detected with a SpectraMax i3x multi-mode enzyme labeling instrument.

Sequence of PRMT1 (Q99873 whole entry): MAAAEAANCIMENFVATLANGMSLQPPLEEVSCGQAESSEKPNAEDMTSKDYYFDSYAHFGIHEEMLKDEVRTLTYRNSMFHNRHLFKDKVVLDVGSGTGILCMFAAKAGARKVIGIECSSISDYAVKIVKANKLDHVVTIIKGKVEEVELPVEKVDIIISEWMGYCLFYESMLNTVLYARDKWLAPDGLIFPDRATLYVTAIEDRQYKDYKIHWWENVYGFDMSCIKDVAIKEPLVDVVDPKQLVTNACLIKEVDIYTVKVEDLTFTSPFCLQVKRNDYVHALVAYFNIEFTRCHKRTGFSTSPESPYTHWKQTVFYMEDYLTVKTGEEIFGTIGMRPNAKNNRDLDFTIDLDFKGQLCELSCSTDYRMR

Compound | IC50 (PRMT1) [nM] | IC50 (Toledo cells; Homo sapiens, Toledo, 144 h) [nM] | IC50 (Toledo cells) [nM]
CNCCN(C)Cc1ccc(F)cc1C1CCc2ccc(C(F)(F)F)cc2CC1 (stereo not drawn) [P002] | < 50 |  | 
CNCCN(C)Cc1cc(F)ccc1[C@H]1CC[C@@H](c2cccc(C)c2)CC1 [P006] | < 50 | 1000 to 5000 | 
CNCCN(C)Cc1cc(F)ccc1C1CCN(CCc2ccc(C(F)(F)F)cc2)CC1 [P010] | < 50 | 1000 to 5000 | 
CNCCN(C)Cc1ccc(F)cc1C1CCc2ccccc2CC1 [P011] | < 50 | < 1000 | 
CNCCN(C)Cc1ccc(F)cc1C1CCN(CCc2ccccc2)CC1 [P012] | < 50 | < 1000 | 
CCc1cccc(N2CCC(c3cc(F)ccc3CN(C)CCNC)CC2)c1 [P013] | < 50 | 1000 to 5000 | 
CCC1CC=C(c2ccccc2CN(C)CCNC)CC1 (stereo not drawn) [P016] | < 50 | < 1000 | 
CNCCN(C)Cc1ccccc1C1CCCCC1 [P024] | < 50 | < 1000 | 
CNCCN(C)Cc1ccc(F)cc1[C@H]1CC[C@@H](Oc2cc(C(F)(F)F)cc(C(F)(F)F)c2)CC1 [P026] | ≥ 500 |  | 
CNCCN(C)Cc1ccccc1C1=CCN(C(C)C)CC1 [P028] | < 50 | ≥ 5000 | 
CCC1CCN(c2ccccc2CN(C)CCNC)CC1 [P031] | < 50 | 1000 to 5000 | 
CNCCN(C)Cc1ccc(F)cc1N1CCC(Oc2cc(C(F)(F)F)cc(C(F)(F)F)c2)CC1 [P032] | ≥ 500 |  | 
CNCCN(C)Cc1ccccc1N1CCC(N(C)C)CC1 [P035] | 50 to 500 | ≥ 5000 | 
CNCCN(C)Cc1ccccc1C1CCC2(CC1)CC(C)(C)CO2 (stereo not drawn) [P040] | < 50 |  | < 1000
CNCCN(C)Cc1ccccc1C1=CCC2(CC1)CC(C)(C)CO2 (stereo not drawn) [P042] | < 50 | < 1000 | 
CNCCN(C)Cc1nc2ccccc2cc1C1CCN(c2cccc(C)c2)CC1 [P046] | < 50 | 1000 to 5000 | 
CCOC[C@H]1CC[C@@H](c2ccccc2CN(C)CCNC)CC1 [P048] | < 50 | < 1000 | 
CNCCN(C)Cc1ccccc1C1=CCC2(CCCCO2)CC1 (stereo not drawn) [P055] | < 50 | 1000 to 5000 | 
CNCCN(C)Cc1ccc(C)nc1C1CCN(c2cc(C)c(F)cc2F)CC1 [P062] | < 50 |  | 
CNCCN(C)Cc1ncccc1C#Cc1cccc(C)c1 [P091] | ≥ 500 |  | 
CNCCN(C)Cc1ncccc1C1CCN(C)CC1 [P152] | < 50 |  | 
CNCCN(C)Cc1ccc(-c2ncc[nH]2)cc1C1CCN(c2cccc(C)c2)CC1 [P154] | < 50 |  | 

Compound | IC50 (PRMT1) [nM] | IC50 (Toledo cells; Homo sapiens, Toledo, 144 h) [nM] | IC50 (Toledo cells) [nM]
CNCCN(C)Cc1ccc(=O)[nH]c1C1CCN(c2cccc(C)c2)CC1 [P211] | 50 to 500 |  | 
CNCCN(C)Cc1cc(C(N)=O)ccc1C1CCN(c2cccc(C)c2)CC1 [P220] | 50 to 500 |  | 
CNCCN(C)Cc1ncccc1C1CCCCO1 (stereo not drawn) [P247] | 50 to 500 |  | 
CNCCN(C)Cc1ncccc1C1CCN(CCOCCOCCOCCOCCOCCN2CCC(c3cccnc3CN(C)CCNC)CC2)CC1 [P257] | < 50 |  | 
CNCCN(C)Cc1ncccc1N1CCC(OCCOC)CC1 [P274] | < 50 |  | 
CNCCN(C)Cc1ncccc1C1CCN(c2ccnnc2)CC1 [P289] | < 50 |  | 
CNCCN(C)Cc1ncccc1N1CCC(O)CC1 [P294] | < 50 |  | 
CNCCN(C)Cc1ncccc1C1CCN(c2ccc(C(N)=O)cc2)CC1 [P299] | < 50 |  | 
CNCCN(C)Cc1ncccc1N1CCC(OCC(=O)NC)CC1 [P322] | < 50 |  | 
NCCCCc1ccccc1N1CCc2cc(F)c(F)cc2CC1 [P350] | ≥ 500 |  | 
CNCCN(C)C(C)c1ccccc1N1CCc2cc(F)c(F)cc2CC1 (stereo not drawn) [P351] | 50 to 500 |  | 
CNCCN(C)Cc1ccc(OC)nc1C1CCN(c2cccc(C)c2)CC1 [P352] | 50 to 500 |  | 
CNCCN(C)Cc1ccc(NC(=O)NC)nc1C1CCN(c2cccc(C)c2)CC1 [P353] | < 50 |  | 
CNCCN(C)Cc1ccc(Nc2ccc(F)cc2)nc1C1CCN(c2cccc(C)c2)CC1 [P354] | 50 to 500 |  | 
CNCCN(C)Cc1ccc(Nc2ncc[nH]2)nc1C1CCN(c2cccc(C)c2)CC1 [P355] | < 50 |  | 
CNCCN(C)Cc1ccc(NS(C)(=O)=O)nc1C1CCN(c2cccc(C)c2)CC1 [P357] | 50 to 500 |  | 
CNCCN(C)Cc1ccc(NC)nc1C1CCN(c2cccc(C)c2)CC1 [P358] | < 50 |  | 
CNCCN(C)Cc1nc(N)cnc1C1CCN(c2cccc(C)c2)CC1 [P359] | 50 to 500 |  | 
CNCCN(C)Cc1ccc(N2CCOC2=O)nc1C1CCN(c2cccc(C)c2)CC1 [P360] | 50 to 500 |  | 
CCOC(=O)c1cnc(Nc2ccc(CN(C)CCNC)c(C3CCN(c4cccc(C)c4)CC3)n2)[nH]1 [P367] | < 50 |  | 
Cc1cccc(N2CCC(c3nc(N)cnc3CN(C)CCN(C)C)CC2)c1 [P368] | 50 to 500 |  | 
Cc1cccc(N2CCC(c3nc(N)cnc3CN(C)CCN)CC2)c1 [P369] | < 50 |  | 

Continued, in another order:

IC50 (PRMT1) [nM] | Compound | IC50 (Toledo cells; Homo sapiens, Toledo, 144 h) [nM] | IC50 (Toledo cells) [nM]
< 50 | CNCCN(C)Cc1ccc(F)cc1C1CCCN(c2ccccc2)CC1 (stereo not drawn) [P017] | 1000 to 5000 | 
< 50 | CNCCN(C)Cc1cc(F)ccc1C1CCN(c2cccc(C)c2)CC1 [P020] | < 1000 | 
< 50 | CNCCN(C)Cc1ccccc1C1CCN(C(C)C)CC1 [P027] | 1000 to 5000 | 
< 50 | CNCCN(C)Cc1ccccc1N1CCc2ccccc2C1 [P029] |  | 
< 50 | CNCCN(C)Cc1ccc(F)cc1N1CCCN(c2ccccc2)CC1 [P030] | ≥ 5000 | 
< 50 | CNCCN(C)Cc1ccccc1N1CCCCC1 [P033] | 1000 to 5000 | 
< 50 | CNCCN(C)Cc1nc(C)ccc1C1CCN(CCc2ccc(C(F)(F)F)cc2)CC1 [P034] | < 1000 | 
< 50 | CNCCN(C)Cc1nc(C)ccc1C1CCc2cc(F)c(F)cc2CC1 [P036] | < 1000 | 
< 50 | CNCCN(C)Cc1ccc(C)nc1C1CCc2cc(F)c(F)cc2CC1 [P038] | < 1000 | 
< 50 | CNCCN(C)Cc1ccc2ncccc2c1C1=CCN(c2cccc(C)c2)CC1 [P047] | 1000 to 5000 | 
50 to 500 | CNCCN(C)Cc1ccc2nncn2c1C1CCN(c2cccc(C)c2)CC1 [P232] |  | 
< 50 | CNCCN(C)Cc1ncccc1C1CCN(C(=O)C(C)C)CC1 [P235] |  | 
< 50 | CNCCN(C)Cc1ncccc1C1CCN(C(C)(C)O)CC1 [P244] |  | 
< 50 | CNCCN(C)Cc1ncccc1C1CCOCC1 [P245] |  | 
≥ 500 | CNCCN(C)Cc1ncccc1C1CCCOC1 (stereo not drawn) [P246] |  | 
< 50 | CNCCN(C)Cc1ccc2[nH]nnc2c1C1CCN(c2cccc(C)c2)CC1 [P265] |  | 
< 50 | CNCCN(C)Cc1ncccc1N1CCc2ccc(S(C)(=O)=O)cc2CC1 [P295] |  | 
< 50 | CNCCN(C)Cc1ccc(CN2CCCC2)nc1C1CCN(c2cccc(C)c2)CC1 [P361] |  | 
50 to 500 | CNCCN(C)Cc1ccc(NCCNCC(=O)OC)nc1C1CCN(c2cccc(C)c2)CC1 [P362] |  | 
50 to 500 | CNCCN(C)Cc1ccc(NC(=O)N(C)C)nc1C1CCN(c2cccc(C)c2)CC1 [P363] |  | 
50 to 500 | CNCCN(C)Cc1ccc(NS(=O)(=O)N(C)C)nc1C1CCN(c2cccc(C)c2)CC1 [P365] |  | 
< 50 | CNCCN(C)Cc1ccc(Nc2nc3ccccc3[nH]2)nc1C1CCN(c2cccc(C)c2)CC1 [P366] |  | 
